Test system: HEK293 cells
Assay: Preliminary screening as mRNA vectors, EGFP mRNA transfection of HEK293 cells
Format: cell-based
Settings: EGFP mRNA 50 ng per well, 96-well plates; percentage of GFP fluorescent cells relative to total number of cells (Hoechst)
How it was run: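 Each well of HEK293 cells received 50 ng of EGFP mRNA. Efficiency was expressed as percent GFP-expressing cells over Hoechst-defined total cell number.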

First: CCCCCCCCCCCCNc1nc(NCCCN2CCN(C)CC2)nc(SCCCCCCC)n1 [Compound D9S7N12]
Second: CCCCCCCCCCCNc1nc(NCCCN2CCN(C)CC2)nc(SCCCCCCCC)n1 [Compound D9S8N11]
The “Absolute mRNA transfection efficiency in HEK293 cells” value (from here on “Absolute mRNA transfection efficiency”) of the first is lower: 62.7% for the first, 81.7% for the second.

First: CCCCCCCCCCCCCNc1nc(NCCCN2CCN(C)CC2)nc(SCCCCCCC)n1 [Compound D9S7N13]
Second: CCCCCCCCCCCCNc1nc(NCCCN2CCN(C)CC2)nc(SCCCCCCCC)n1 [Compound D9S8N12]
The “Absolute mRNA transfection efficiency” value of the first is higher: 60.4% for the first, 57.6% for the second.

Compared with `CCCCCCCCCCCCCCCNc1nc(NCCCN2CCN(C)CC2)nc(SCCCCCCC)n1` [Compound D9S7N15], `CCCCCCCCCCCCCNc1nc(NCCCN2CCN(C)CC2)nc(SCCCCCCCCC)n1` [Compound D9S9N13] is lower in “Absolute mRNA transfection efficiency” value: 32.6% for the first, 20.0% for the second.

Going from `CCCCCCCCCCCCCCCCNc1nc(NCCCN2CCN(C)CC2)nc(SCCCCCCC)n1` [Compound D9S7N16] to `CCCCCCCCCCCCCCCNc1nc(NCCCN2CCN(C)CC2)nc(SCCCCCCCC)n1` [Compound D9S8N15], the “Absolute mRNA transfection efficiency” value rises from 29.3% to 37.8%.

Going from `CCCCCCCCCCCCCCCCCCNc1nc(NCCCN2CCN(C)CC2)nc(SCCCCCCC)n1` [Compound D9S7N18] to `CCCCCCCCCCCCCCCCNc1nc(NCCCN2CCN(C)CC2)nc(SCCCCCCCCC)n1` [Compound D9S9N16], the “Absolute mRNA transfection efficiency” value falls from 37.1% to 16.7%.

First: CCCCCCCSc1nc(NCCCN2CCN(C)CC2)nc(SCCCCCCC)n1 [Compound D9S7S7]
Second: CCCCCCCCSc1nc(NCCCN2CCN(C)CC2)nc(SCCCCCCC)n1 [Compound D9S7S8]
The “Absolute mRNA transfection efficiency” value of the first is lower: 18.3% for the first, 43.7% for the second.

Going from `CCCCCCCCCSc1nc(NCCCN2CCN(C)CC2)nc(SCCCCCCC)n1` [Compound D9S7S9] to `CCCCCCCCSc1nc(NCCCN2CCN(C)CC2)nc(SCCCCCCCC)n1` [Compound D9S8S8], the “Absolute mRNA transfection efficiency” value rises from 35.3% to 53.3%.

First: CCCCCCCCCCSc1nc(NCCCN2CCN(C)CC2)nc(SCCCCCCC)n1 [Compound D9S7S10]
Second: CCCCCCCCCSc1nc(NCCCN2CCN(C)CC2)nc(SCCCCCCCC)n1 [Compound D9S8S9]
The “Absolute mRNA transfection efficiency” value of the first is lower: 47.1% for the first, 85.2% for the second.

First: CCCCCCCCCCCSc1nc(NCCCN2CCN(C)CC2)nc(SCCCCCCC)n1 [Compound D9S7S11]
Second: CCCCCCCCCCSc1nc(NCCCN2CCN(C)CC2)nc(SCCCCCCCC)n1 [Compound D9S8S10]
The “Absolute mRNA transfection efficiency” value of the first is higher: 80.0% for the first, 79.4% for the second.

Going from `CCCCCCCCCCCCSc1nc(NCCCN2CCN(C)CC2)nc(SCCCCCCC)n1` [Compound D9S7S12] to `CCCCCCCCCCCSc1nc(NCCCN2CCN(C)CC2)nc(SCCCCCCCC)n1` [Compound D9S8S11], the “Absolute mRNA transfection efficiency” value rises from 26.4% to 97.6%.

First: CCCCCCCCCCCCCCSc1nc(NCCCN2CCN(C)CC2)nc(SCCCCCCC)n1 [Compound D9S7S14]
Second: CCCCCCCCCCCCCCCSc1nc(NCCCN2CCN(C)CC2)nc(SCCCCCCC)n1 [Compound D9S7S15]
The “Absolute mRNA transfection efficiency” value of the first is higher: 34.5% for the first, 9.6% for the second.

Compared with `CCCCCCCCCCCCCCCCSc1nc(NCCCN2CCN(C)CC2)nc(SCCCCCCC)n1` [Compound D9S7S16], `CCCCCCCCCCCCCCCCCCSc1nc(NCCCN2CCN(C)CC2)nc(SCCCCCCC)n1` [Compound D9S7S18] is higher in “Absolute mRNA transfection efficiency” value: 9.2% for the first, 34.3% for the second.

Compared with `CCCCCCCCSc1nc(NCCCCCC)nc(NCCCN2CCN(C)CC2)n1` [Compound D9S8N6], `CCCCCCCCSc1nc(NCCCCCCC)nc(NCCCN2CCN(C)CC2)n1` [Compound D9S8N7] is higher in “Absolute mRNA transfection efficiency” value: 0.7% for the first, 1.4% for the second.

Compared with `CCCCCCCCNc1nc(NCCCN2CCN(C)CC2)nc(SCCCCCCCC)n1` [Compound D9S8N8], `CCCCCCCCCSc1nc(NCCCCCCC)nc(NCCCN2CCN(C)CC2)n1` [Compound D9S9N7] is lower in “Absolute mRNA transfection efficiency” value: 4.5% for the first, 2.8% for the second.

Going from `CCCCCCCCCNc1nc(NCCCN2CCN(C)CC2)nc(SCCCCCCCC)n1` [Compound D9S8N9] to `CCCCCCCCCSc1nc(NCCCCCCCC)nc(NCCCN2CCN(C)CC2)n1` [Compound D9S9N8], the “Absolute mRNA transfection efficiency” value falls from 57.0% to 9.2%.

Going from `CCCCCCCCCCCCCNc1nc(NCCCN2CCN(C)CC2)nc(SCCCCCCCC)n1` [Compound D9S8N13] to `CCCCCCCCCCCCNc1nc(NCCCN2CCN(C)CC2)nc(SCCCCCCCCC)n1` [Compound D9S9N12], the “Absolute mRNA transfection efficiency” value falls from 46.5% to 36.0%.

First: CCCCCCCCCCCCCCCCNc1nc(NCCCN2CCN(C)CC2)nc(SCCCCCCCC)n1 [Compound D9S8N16]
Second: CCCCCCCCCCCCCCCNc1nc(NCCCN2CCN(C)CC2)nc(SCCCCCCCCC)n1 [Compound D9S9N15]
The “Absolute mRNA transfection efficiency” value of the first is higher: 21.2% for the first, 6.3% for the second.

First: CCCCCCCCCCCCCCCCCCNc1nc(NCCCN2CCN(C)CC2)nc(SCCCCCCCC)n1 [Compound D9S8N18]
Second: CCCCCCCCCCCCCCCCNc1nc(NCCCN2CCN(C)CC2)nc(SCCCCCCCCCC)n1 [Compound D9S10N16]
The “Absolute mRNA transfection efficiency” value of the first is higher: 29.4% for the first, 13.6% for the second.

First: CCCCCCCCCCCCSc1nc(NCCCN2CCN(C)CC2)nc(SCCCCCCCC)n1 [Compound D9S8S12]
Second: CCCCCCCCCCCNc1nc(NCCCN2CCN(C)CC2)nc(SCCCCCCCCC)n1 [Compound D9S9N11]
The “Absolute mRNA transfection efficiency” value of the first is lower: 23.6% for the first, 49.2% for the second.

Going from `CCCCCCCCCSc1nc(NCCCCCC)nc(NCCCN2CCN(C)CC2)n1` [Compound D9S9N6] to `CCCCCCCCCCSc1nc(NCCCCCC)nc(NCCCN2CCN(C)CC2)n1` [Compound D9S10N6], the “Absolute mRNA transfection efficiency” value falls from 1.8% to 1.1%.

First: CCCCCCCCCNc1nc(NCCCN2CCN(C)CC2)nc(SCCCCCCCCC)n1 [Compound D9S9N9]
Second: CCCCCCCCCCSc1nc(NCCCCCCCC)nc(NCCCN2CCN(C)CC2)n1 [Compound D9S10N8]
The “Absolute mRNA transfection efficiency” value of the first is higher: 76.1% for the first, 5.4% for the second.

First: CCCCCCCCCCCCCCCCCCNc1nc(NCCCN2CCN(C)CC2)nc(SCCCCCCCCC)n1 [Compound D9S9N18]
Second: CCCCCCCCCCCCCCCCNc1nc(NCCCN2CCN(C)CC2)nc(SCCCCCCCCCCC)n1 [Compound D9S11N16]
The “Absolute mRNA transfection efficiency” value of the first is higher: 14.5% for the first, 3.9% for the second.

First: CCCCCCCCCCSc1nc(NCCCCCCC)nc(NCCCN2CCN(C)CC2)n1 [Compound D9S10N7]
Second: CCCCCCCCCCCSc1nc(NCCCCCC)nc(NCCCN2CCN(C)CC2)n1 [Compound D9S11N6]
The “Absolute mRNA transfection efficiency” value of the first is lower: 0.8% for the first, 12.2% for the second.

Compared with `CCCCCCCCCCSc1nc(NCCCCCCCCC)nc(NCCCN2CCN(C)CC2)n1` [Compound D9S10N9], `CCCCCCCCCCCSc1nc(NCCCCCCCC)nc(NCCCN2CCN(C)CC2)n1` [Compound D9S11N8] is higher in “Absolute mRNA transfection efficiency” value: 10.5% for the first, 37.6% for the second.

Going from `CCCCCCCCCCCNc1nc(NCCCN2CCN(C)CC2)nc(SCCCCCCCCCC)n1` [Compound D9S10N11] to `CCCCCCCCCCCCSc1nc(NCCCCCCCCC)nc(NCCCN2CCN(C)CC2)n1` [Compound D9S12N9], the “Absolute mRNA transfection efficiency” value rises from 11.3% to 25.6%.

Going from `CCCCCCCCCCCCNc1nc(NCCCN2CCN(C)CC2)nc(SCCCCCCCCCC)n1` [Compound D9S10N12] to `CCCCCCCCCCCNc1nc(NCCCN2CCN(C)CC2)nc(SCCCCCCCCCCC)n1` [Compound D9S11N11], the “Absolute mRNA transfection efficiency” value rises from 6.0% to 24.5%.

First: CCCCCCCCCCCCCNc1nc(NCCCN2CCN(C)CC2)nc(SCCCCCCCCCC)n1 [Compound D9S10N13]
Second: CCCCCCCCCCCCNc1nc(NCCCN2CCN(C)CC2)nc(SCCCCCCCCCCC)n1 [Compound D9S11N12]
The “Absolute mRNA transfection efficiency” value of the first is lower: 2.7% for the first, 21.7% for the second.

First: CCCCCCCCCCCCCCCNc1nc(NCCCN2CCN(C)CC2)nc(SCCCCCCCCCC)n1 [Compound D9S10N15]
Second: CCCCCCCCCCCCCCCNc1nc(NCCCN2CCN(C)CC2)nc(SCCCCCCCCCCC)n1 [Compound D9S11N15]
The “Absolute mRNA transfection efficiency” value of the first is lower: 5.4% for the first, 15.7% for the second.

Going from `CCCCCCCCCCCCCCCCCCNc1nc(NCCCN2CCN(C)CC2)nc(SCCCCCCCCCC)n1` [Compound D9S10N18] to `CCCCCCCCCCCCCCCCCCNc1nc(NCCCN2CCN(C)CC2)nc(SCCCCCCCCCCC)n1` [Compound D9S11N18], the “Absolute mRNA transfection efficiency” value rises from 9.0% to 14.9%.

Compared with `CCCCCCCCCCCSc1nc(NCCCCCCC)nc(NCCCN2CCN(C)CC2)n1` [Compound D9S11N7], `CCCCCCCCCCCCSc1nc(NCCCCCC)nc(NCCCN2CCN(C)CC2)n1` [Compound D9S12N6] is lower in “Absolute mRNA transfection efficiency” value: 10.5% for the first, 0.2% for the second.

First: CCCCCCCCCCCSc1nc(NCCCCCCCCC)nc(NCCCN2CCN(C)CC2)n1 [Compound D9S11N9]
Second: CCCCCCCCCCCCSc1nc(NCCCCCCCC)nc(NCCCN2CCN(C)CC2)n1 [Compound D9S12N8]
The “Absolute mRNA transfection efficiency” value of the first is higher: 60.3% for the first, 20.1% for the second.

First: CCCCCCCCCCCCCNc1nc(NCCCN2CCN(C)CC2)nc(SCCCCCCCCCCC)n1 [Compound D9S11N13]
Second: CCCCCCCCCCCCNc1nc(NCCCN2CCN(C)CC2)nc(SCCCCCCCCCCCC)n1 [Compound D9S12N12]
The “Absolute mRNA transfection efficiency” value of the first is higher: 9.4% for the first, 0.9% for the second.

Going from `CCCCCCCCCCCCSc1nc(NCCCCCCC)nc(NCCCN2CCN(C)CC2)n1` [Compound D9S12N7] to `CCCCCCCCCCCCSc1nc(NCCCCCCCCCCC)nc(NCCCN2CCN(C)CC2)n1` [Compound D9S12N11], the “Absolute mRNA transfection efficiency” value rises from 0.6% to 3.3%.

— patent US20230123334A1, “AMINO LIPID COMPOUND, PREPARATION METHOD THEREFOR, AND APPLICATION THEREOF” (SHENZHEN SHENXIN BIOTECHNOLOGY CO., LTD., priority 2020, published 2023)
